Columns and labels:
Assay type in all cases: in vivo
[1] = tested on: larvae of the mustard beetle (Phaedon cochleariae); experiment: Phaedon cochleariae spray test; conditions: foliar, 168 h, 100 g/ha, after 7 days, Chinese cabbage leaf discs, read-out: efficacy
In short: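 Chinese cabbage leaf discs sprayed with compound formulated in acetone/DMF and emulsifier-containing water, then infested with mustard beetle larvae after drying. Efficacy (% larvae killed) scored after 7 days.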

[2] = tested on: green peach aphid (Myzus persicae); experiment: Comparative Myzus persicae spray test (MYZUPE); conditions: 144 h, 6 dat, read-out: % efficacy
Description: (§1) Solvent: 14 parts by weight of dimethylformamide
(§2) Emulsifier: alkylaryl polyglycol ether
(§3) To produce a suitable active compound formulation, 1 part by weight of active compound is dissolved with the specified parts by weight of solvent and made up to the desired concentration with water containing an emulsifier concentration of 1000 ppm. To produce further test concentrations, the formulation is diluted with emulsifier-containing water. If the addition of ammonium salts or/and penetrants is required, these are each added in a concentration of 1000 ppm to the formulation solution.
Bell pepper plants (Capsicum annuum) severely infested with the green peach aphid (Myzus persicae) are treated by spraying with the active ingredient formulation in the desired concentration.
After the desired time, the kill in % is determined. 100% means that all the animals have been killed; 0% means that no animals have been killed.

[3] = tested on: adult cat fleas (Ctenocephalides felis); experiment: Ctenocephalides felis in vitro contact test with adult cat fleas; conditions: application rate 5 μg/cm^2 (=500 g/ha), after 48 h, dead or moribund fleas
Description: For the coating of the test tubes, 9 mg of active compound are first dissolved in 1 ml of acetone p.a. and then diluted to the desired concentration with acetone p.a. 250 μl of the solution are distributed homogeneously on the inner walls and the base of a 25 ml glass tube by turning and rocking on an orbital shaker (rocking rotation at 30 rpm for 2 h). With 900 ppm of active compound solution and internal surface area 44.7 cm^2, given homogeneous distribution, an area-based dose of 5 μg/cm^2 is achieved.
After the solvent has evaporated off, the tubes are populated with 5-10 adult cat fleas (Ctenocephalides felis), sealed with a perforated plastic lid and incubated in a horizontal position at room temperature and ambient humidity. After 48 h, efficacy is determined. To this end, the tubes are stood upright and the fleas are knocked to the base of the tube. Fleas which remain motionless at the base or move in an uncoordinated manner are considered to be dead or moribund.
100% efficacy means that all the fleas were dead or moribund. 0% efficacy means that no fleas were harmed.

[4] = tested on: larvae of the diamondback moth (Plutella xylostella); experiment: Comparative Plutella xylostella spray test (PLUTMA); conditions: 168 h, 7 dat, read-out: % efficacy
Description: as §1, §2, §3
Cabbage leaves (Brassica oleracea) are sprayed with an active ingredient formulation of the desired concentration and infected with larvae of the diamondback moth (Plutella xylostella).
(§4) After the desired time, the kill in % is determined. 100% means that all caterpillars have been killed; 0% means that none of the caterpillars have been killed.

[5] = tested on: adult cat fleas (Ctenocephalides felis); experiment: Ctenocephalides felis oral test; conditions: 48 h, 100 ppm in citrated cattle blood, after 2 days, read-out: efficacy (kill)
In short: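 Test compound in DMSO, diluted in citrated cattle blood to the test concentration and offered to ~20 unfed adults through a parafilm membrane. Kill % scored after 2 days (100% = all fleas dead, 0% = none).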

[6] = tested on: caterpillars of the armyworm (Spodoptera frugiperda); experiment: Comparative Spodoptera frugiperda drench test (SPODFR D); conditions: soil, 336 h, 14 dat, read-out: % efficacy
Description: Solvent: 7 parts by weight of dimethylformamide
Emulsifier: 2 parts by weight of alkylaryl polyglycol ether
To produce a suitable active ingredient formulation, 1 part by weight of active ingredient is mixed with the specified amounts of solvent and emulsifier, and the concentrate is diluted with water to the desired concentration, it being necessary to take into account the volume of soil which is drenched. It should be ensured that a concentration of 40 ppm of emulsifier in the soil is not exceeded. To produce further test concentrations, water is used for dilution.
Maize plants (Zea mays) in pots of soil are watered with an active ingredient formulation of the desired concentration and infected with caterpillars of the armyworm (Spodoptera frugiperda).
as §4

[7] = tested on: caterpillars of the cotton bollworm (Heliothis armigera); experiment: Comparative Heliothis armigera spray test (HELIAR); conditions: Helicoverpa armigera, 168 h, 7 dat, read-out: % efficacy
Description: as §1, §2, §3
Cotton plants (Gossypium hirsutum) are sprayed with an active compound formulation of the desired concentration and, after drying, populated with caterpillars of the cotton bollworm (Heliothis armigera).
as §4

In the case of CCS(=O)(=O)c1c(-c2nc3cc(C(F)(F)F)cnc3n2C)nc2cc(C3(C#N)CC3)ccn12 [Example I-11, 1-{3-(Ethylsulfonyl)-2-[3-methyl-6-(trifluoromethyl)-3H-imidazo[4,5-b]pyridin-2-yl]imidazo[1,2-a]pyridin-7-yl}cyclopropanecarbonitrile], the pest or weed control at 100 g/ha [1] is reported as 100%, the Emax at 0.8 ppm [2] is reported as 90% and the efficacy [3] is reported as 100%. It also gave an Emax at 0.16 ppm [4] of 100%, a pest or weed control at 100 ppm [5] of 100% and an Emax at 0.16 ppm [6] of 100%. It also gave an Emax at 0.16 ppm [7] of 100%.

— patent publication USRE50663E1, “Heterocycle derivatives as pesticides” (Bayer Aktiengesellschaft, priority 2017, dated 2025)
